2 compounds from patent US10670605B2, “Cysteine reactive probes and uses thereof” (The Scripps Research Institute, priority 2015, dated 2020) can be followed below.

Holding throughout (experiment): Competitive isoTOP-ABPP in situ (fragment-treated cells)
Holding throughout (type): cell-based

The target of test [1] is cysteines in MDA-MB-231 and Ramos cells (Homo sapiens, UniProt P35658). The following applies: 200 μM, insitu, ramos.
The target in test [2] is T1, cysteines in MDA-MB-231 and Ramos cells (Homo sapiens, UniProt Q8NFH5).
T1 sequence (Q8NFH5 1-326): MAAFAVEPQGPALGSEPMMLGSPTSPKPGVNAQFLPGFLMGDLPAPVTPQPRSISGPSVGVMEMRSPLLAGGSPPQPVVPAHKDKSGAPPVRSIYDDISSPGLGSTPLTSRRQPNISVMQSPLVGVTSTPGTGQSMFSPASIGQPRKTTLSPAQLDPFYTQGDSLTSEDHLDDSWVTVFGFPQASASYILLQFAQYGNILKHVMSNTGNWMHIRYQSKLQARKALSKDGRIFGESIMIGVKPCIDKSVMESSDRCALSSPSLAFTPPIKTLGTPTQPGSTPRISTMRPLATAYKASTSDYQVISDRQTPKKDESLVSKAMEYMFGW
To be noted: 200 μM, insitu.

Test [3] concerns the target cysteines in MDA-MB-231 and Ramos cells (Homo sapiens, UniProt P04818). To be noted: 200 μM, insitu.
Test [4] addresses T2, cysteines in MDA-MB-231 and Ramos cells (Homo sapiens, UniProt Q15398).
T2 sequence (Q15398 1-846): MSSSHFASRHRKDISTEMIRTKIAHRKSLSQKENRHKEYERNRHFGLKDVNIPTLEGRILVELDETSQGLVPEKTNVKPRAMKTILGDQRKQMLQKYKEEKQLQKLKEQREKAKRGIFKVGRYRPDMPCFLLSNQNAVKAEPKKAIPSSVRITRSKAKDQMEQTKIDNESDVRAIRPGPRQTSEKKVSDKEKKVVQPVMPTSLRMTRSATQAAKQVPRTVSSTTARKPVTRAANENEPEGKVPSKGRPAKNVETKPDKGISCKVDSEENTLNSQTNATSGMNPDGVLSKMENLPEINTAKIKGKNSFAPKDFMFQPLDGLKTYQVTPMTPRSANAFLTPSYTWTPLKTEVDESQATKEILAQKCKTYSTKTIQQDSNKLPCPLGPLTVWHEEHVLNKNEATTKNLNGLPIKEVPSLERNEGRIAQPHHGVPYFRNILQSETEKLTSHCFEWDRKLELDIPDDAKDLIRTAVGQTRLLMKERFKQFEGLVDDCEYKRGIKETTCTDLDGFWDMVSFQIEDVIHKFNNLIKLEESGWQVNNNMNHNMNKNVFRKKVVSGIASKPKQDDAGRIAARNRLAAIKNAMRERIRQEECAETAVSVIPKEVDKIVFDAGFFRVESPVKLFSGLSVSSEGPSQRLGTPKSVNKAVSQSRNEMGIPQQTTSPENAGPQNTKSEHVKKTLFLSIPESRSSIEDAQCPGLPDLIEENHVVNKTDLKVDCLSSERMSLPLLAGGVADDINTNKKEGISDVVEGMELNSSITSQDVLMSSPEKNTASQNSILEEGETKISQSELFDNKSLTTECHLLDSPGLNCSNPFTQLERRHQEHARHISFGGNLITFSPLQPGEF
The following applies: 200 μM, insitu.

Test [5] concerns the target cysteines in MDA-MB-231 and Ramos cells (Homo sapiens, UniProt O60825). The following applies: 200 μM, insitu, ramos.
Test [6] has as its target T3, cysteines in MDA-MB-231 and Ramos cells (Homo sapiens, UniProt Q8N1F7).
T3 sequence (Q8N1F7 1-819): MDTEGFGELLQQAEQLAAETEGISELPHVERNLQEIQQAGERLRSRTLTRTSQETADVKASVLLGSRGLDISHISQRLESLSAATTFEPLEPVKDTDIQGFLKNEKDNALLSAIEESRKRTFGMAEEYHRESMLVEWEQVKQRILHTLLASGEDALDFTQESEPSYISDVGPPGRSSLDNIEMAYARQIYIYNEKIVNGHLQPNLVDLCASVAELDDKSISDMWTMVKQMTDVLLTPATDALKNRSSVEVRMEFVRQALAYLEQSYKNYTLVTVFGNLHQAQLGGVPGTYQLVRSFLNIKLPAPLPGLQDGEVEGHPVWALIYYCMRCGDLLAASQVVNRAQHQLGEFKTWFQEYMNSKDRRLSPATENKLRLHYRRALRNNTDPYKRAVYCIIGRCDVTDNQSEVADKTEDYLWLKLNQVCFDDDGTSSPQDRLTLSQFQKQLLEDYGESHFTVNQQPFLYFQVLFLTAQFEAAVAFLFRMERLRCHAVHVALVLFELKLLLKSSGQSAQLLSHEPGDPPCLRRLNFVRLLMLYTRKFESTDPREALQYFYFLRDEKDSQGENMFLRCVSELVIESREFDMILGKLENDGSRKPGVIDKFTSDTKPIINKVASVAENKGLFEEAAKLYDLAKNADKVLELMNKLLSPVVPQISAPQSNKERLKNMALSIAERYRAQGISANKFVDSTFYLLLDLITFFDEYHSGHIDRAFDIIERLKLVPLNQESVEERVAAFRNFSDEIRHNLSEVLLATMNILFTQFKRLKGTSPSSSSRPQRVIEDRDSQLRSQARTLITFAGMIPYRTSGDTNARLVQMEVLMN
To be noted: 200 μM, insitu.

The target in test [7] is cysteines in MDA-MB-231 and Ramos cells (Homo sapiens, UniProt P07858). The following applies: 200 μM, insitu, 231.
Test [8] has as its target cysteines in MDA-MB-231 and Ramos cells (Homo sapiens, UniProt P48643). The following applies: 200 μM, insitu, 231.

cysteines in MDA-MB-231 and Ramos cells (Homo sapiens, UniProt P04818), sequence (P04818 whole entry): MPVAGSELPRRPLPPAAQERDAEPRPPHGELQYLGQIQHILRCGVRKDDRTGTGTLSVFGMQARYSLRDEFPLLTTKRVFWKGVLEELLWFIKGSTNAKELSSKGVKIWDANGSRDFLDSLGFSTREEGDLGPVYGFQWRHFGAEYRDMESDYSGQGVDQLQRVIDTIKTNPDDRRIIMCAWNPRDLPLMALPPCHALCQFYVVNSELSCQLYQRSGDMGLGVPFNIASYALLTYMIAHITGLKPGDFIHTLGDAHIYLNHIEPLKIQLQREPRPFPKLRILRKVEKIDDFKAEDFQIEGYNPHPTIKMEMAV
cysteines in MDA-MB-231 and Ramos cells (Homo sapiens, UniProt O60825), sequence (O60825 whole entry): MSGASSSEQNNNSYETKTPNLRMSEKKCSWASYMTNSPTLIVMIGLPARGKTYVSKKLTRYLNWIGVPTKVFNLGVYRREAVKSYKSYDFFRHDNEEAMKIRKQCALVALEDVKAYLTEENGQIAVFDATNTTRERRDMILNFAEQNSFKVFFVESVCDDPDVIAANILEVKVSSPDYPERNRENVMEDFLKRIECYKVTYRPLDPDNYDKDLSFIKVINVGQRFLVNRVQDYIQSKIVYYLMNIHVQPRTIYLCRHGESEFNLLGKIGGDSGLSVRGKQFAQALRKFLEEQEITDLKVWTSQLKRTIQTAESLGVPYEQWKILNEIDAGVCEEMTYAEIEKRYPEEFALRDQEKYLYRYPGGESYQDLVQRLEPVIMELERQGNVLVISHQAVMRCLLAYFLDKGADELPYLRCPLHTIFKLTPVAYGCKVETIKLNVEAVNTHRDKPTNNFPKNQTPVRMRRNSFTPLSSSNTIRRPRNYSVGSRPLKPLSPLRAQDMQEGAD
cysteines in MDA-MB-231 and Ramos cells (Homo sapiens, UniProt P48643), sequence (P48643 whole entry): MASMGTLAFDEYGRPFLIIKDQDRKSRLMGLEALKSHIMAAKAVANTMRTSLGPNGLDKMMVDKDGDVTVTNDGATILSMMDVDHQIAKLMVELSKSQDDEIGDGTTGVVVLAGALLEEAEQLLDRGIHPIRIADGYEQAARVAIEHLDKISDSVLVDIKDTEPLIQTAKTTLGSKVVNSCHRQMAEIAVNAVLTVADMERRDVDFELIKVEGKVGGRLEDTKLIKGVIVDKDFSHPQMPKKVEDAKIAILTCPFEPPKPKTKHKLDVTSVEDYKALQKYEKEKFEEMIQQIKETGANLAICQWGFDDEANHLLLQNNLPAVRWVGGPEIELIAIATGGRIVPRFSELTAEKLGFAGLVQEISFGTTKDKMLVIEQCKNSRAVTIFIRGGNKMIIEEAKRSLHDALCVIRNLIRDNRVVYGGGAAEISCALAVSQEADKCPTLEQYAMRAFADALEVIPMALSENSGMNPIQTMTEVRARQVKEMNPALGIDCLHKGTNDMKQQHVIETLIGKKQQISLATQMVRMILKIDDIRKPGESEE
cysteines in MDA-MB-231 and Ramos cells (Homo sapiens, UniProt P35658), sequence (P35658 whole entry): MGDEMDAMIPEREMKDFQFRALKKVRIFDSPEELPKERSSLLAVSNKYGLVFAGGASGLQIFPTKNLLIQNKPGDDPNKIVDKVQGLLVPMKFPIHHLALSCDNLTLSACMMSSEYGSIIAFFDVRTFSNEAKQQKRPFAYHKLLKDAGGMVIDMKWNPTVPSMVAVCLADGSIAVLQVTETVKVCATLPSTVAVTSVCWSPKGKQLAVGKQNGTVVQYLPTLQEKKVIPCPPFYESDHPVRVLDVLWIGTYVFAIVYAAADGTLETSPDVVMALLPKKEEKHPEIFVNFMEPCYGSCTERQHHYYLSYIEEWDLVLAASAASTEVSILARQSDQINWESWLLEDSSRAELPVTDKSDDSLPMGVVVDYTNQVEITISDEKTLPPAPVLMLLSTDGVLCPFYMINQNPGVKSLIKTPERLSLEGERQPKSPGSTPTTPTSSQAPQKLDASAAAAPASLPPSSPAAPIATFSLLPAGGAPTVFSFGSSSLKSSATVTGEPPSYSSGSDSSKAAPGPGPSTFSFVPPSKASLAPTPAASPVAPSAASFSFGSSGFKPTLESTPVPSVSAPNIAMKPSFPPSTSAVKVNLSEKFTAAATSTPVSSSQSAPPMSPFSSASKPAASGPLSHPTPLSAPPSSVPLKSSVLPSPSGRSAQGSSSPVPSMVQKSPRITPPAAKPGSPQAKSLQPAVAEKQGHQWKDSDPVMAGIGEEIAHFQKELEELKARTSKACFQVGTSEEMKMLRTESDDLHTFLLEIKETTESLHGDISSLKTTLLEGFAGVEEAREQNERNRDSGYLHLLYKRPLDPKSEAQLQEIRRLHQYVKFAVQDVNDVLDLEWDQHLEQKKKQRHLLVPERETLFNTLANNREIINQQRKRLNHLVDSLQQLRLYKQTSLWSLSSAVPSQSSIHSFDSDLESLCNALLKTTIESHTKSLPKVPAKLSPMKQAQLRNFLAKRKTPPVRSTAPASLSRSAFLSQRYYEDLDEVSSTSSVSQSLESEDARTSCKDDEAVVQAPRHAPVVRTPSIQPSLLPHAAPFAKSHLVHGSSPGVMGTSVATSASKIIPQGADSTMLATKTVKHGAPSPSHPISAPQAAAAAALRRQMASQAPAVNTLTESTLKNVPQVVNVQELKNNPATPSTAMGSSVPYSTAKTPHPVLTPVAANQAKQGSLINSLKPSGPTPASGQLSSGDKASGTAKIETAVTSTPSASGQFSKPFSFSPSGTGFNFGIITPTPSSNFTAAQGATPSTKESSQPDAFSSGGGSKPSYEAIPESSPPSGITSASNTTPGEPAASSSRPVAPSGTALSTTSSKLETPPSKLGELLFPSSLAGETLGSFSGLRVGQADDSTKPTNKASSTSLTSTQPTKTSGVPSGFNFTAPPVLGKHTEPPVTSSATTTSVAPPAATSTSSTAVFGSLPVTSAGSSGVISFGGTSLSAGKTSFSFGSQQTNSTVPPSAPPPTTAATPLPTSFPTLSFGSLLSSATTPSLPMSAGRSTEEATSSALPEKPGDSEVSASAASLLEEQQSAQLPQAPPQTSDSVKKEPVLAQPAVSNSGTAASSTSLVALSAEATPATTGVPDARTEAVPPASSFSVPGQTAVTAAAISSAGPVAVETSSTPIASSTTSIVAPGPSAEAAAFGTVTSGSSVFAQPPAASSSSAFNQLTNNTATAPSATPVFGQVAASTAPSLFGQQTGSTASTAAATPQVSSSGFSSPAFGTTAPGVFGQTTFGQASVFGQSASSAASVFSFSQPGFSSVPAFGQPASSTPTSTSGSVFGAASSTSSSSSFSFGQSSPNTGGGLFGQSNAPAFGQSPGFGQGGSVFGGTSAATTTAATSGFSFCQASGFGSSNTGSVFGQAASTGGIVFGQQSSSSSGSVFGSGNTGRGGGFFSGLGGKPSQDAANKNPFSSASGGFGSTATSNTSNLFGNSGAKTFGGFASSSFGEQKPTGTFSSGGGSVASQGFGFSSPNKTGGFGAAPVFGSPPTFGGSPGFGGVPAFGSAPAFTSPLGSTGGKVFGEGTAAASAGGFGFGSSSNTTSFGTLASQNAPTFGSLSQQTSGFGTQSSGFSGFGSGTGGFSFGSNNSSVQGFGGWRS

Consider `O=C(CCl)N1CCN(CC(=O)N2CCOCC2)CC1` [compound 29], for which, in test [1], the “isoTOP-ABPP ratio P35658_C728” value was found to be 1.7. Further, in test [2] (ramos), the “isoTOP-ABPP ratio Q8NFH5_C255” value was 1.6. The “isoTOP-ABPP ratio P04818_C199” value in test [3] (ramos) is listed as 2.5. The “isoTOP-ABPP ratio Q15398_C129” value in test [4] (ramos) came to 1.2. In addition, the “isoTOP-ABPP ratio O60825_C158” value in test [5] came to 0.9. For the same compound, the “isoTOP-ABPP ratio Q8N1F7_C522” value in test [6] (ramos) came to 1.7.

Take `C=CC(=O)Nc1cc(F)c(N2CCN(C(=O)OC(C)(C)C)CC2)c(F)c1` [compound 38]: the “isoTOP-ABPP ratio P07858_C211” value in test [7] was determined as 1.8. In test [2] (231), the “isoTOP-ABPP ratio Q8NFH5_C255” value is on record as 1.1. Moreover, the “isoTOP-ABPP ratio P04818_C199” value in test [3] (231) is on record as 20.0. Also, in test [8], the “isoTOP-ABPP ratio P48643_C253” value came out at 1.1. In addition, in test [4] (231), the “isoTOP-ABPP ratio Q15398_C129” value stood at 1.4. The “isoTOP-ABPP ratio Q8N1F7_C522” value in test [6] (231) is on record as 1.7.
